Active and inactive are the calls of the source. The rule behind the calls is not given here.
Assays:
[1] = Cmax in CD1 mouse at 90 mg/kg, ip measured during 15 mins to 24 hrs by LC-MS/MS analysis; type: ADME, organism-based; set-up: dose 90 mg/kg, route intraperitoneal; conditions: in vivo
[2] = Protein binding in CD1 mouse plasma at 10 uM incubated for 6 hrs by LC-MS/MS analysis and equilibrium dialysis; type: ADME, cell-free; conditions: read-out: PPB (converted)
[3] = Time at which unbound plasma concentration stays above IC50 in C57BL/6 mouse at 90 mg/kg, ip; type: ADME, organism-based; conditions: in vivo
[4] = Toxicity in human KHYG-1 cells assessed as cell viability at 10 uM after 24 h by trypan blue exclusion assay relative to control; type: cell-based; conditions: read-out: Activity
[5] = Half life in CD1 mouse at 90 mg/kg, ip measured during 15 mins to 24 hrs by LC-MS/MS analysis; type: ADME, organism-based; conditions: in vivo
Mus musculus [6] = test: Suppression of bone marrow transplant rejection in B6 mouse model of bone marrow transplantation receiving both allogeneic MHC- mismatched BALB/c stem cells and syngeneic MHC-matched B6 stem cells assessed as reduction in perforin-dependent NK cell-mediated graft rejection in spleen at 125 mg/kg, ip dosed immediately prior to cell transfer and 18 hrs after cell transfer and measured after 24 hrs relative to control; type: functional; set-up: scale not given: the % may be the effect or the level left
Mus musculus [7] = test: Suppression of bone marrow transplant rejection in B6 mouse model of bone marrow transplantation receiving both allogeneic MHC- mismatched BALB/c stem cells and syngeneic MHC-matched B6 stem cells assessed as reduction in perforin-dependent NK cell-mediated graft rejection in peripheral blood at 125 mg/kg, ip dosed immediately prior to cell transfer and 18 hrs after cell transfer and measured after 24 hrs relative to control; type: functional; set-up: scale not given: the % may be the effect or the level left
[8] = Toxicity in B6 mouse model of bone marrow transplantation receiving both allogeneic MHC- mismatched BALB/c stem cells and syngeneic MHC-matched B6 stem cells assessed as drug tolerability at 125 mg/kg, ip dosed immediately prior to cell transfer and 18 hrs after cell transfer and measured after 24 hrs relative to control; type: organism-based; conditions: in vivo
[9] = Unbound fraction in human KHYG-1 cell media; type: ADME
[10] = AUC (0 to infinity) in CD1 mouse at 90 mg/kg, ip measured during 15 mins to 24 hrs by LC-MS/MS analysis; type: ADME, organism-based; set-up: dose 90 mg/kg, route intraperitoneal, time infinity; conditions: in vivo
[11] = Solubility in water by HPLC analysis; type: physicochemical
[12] = molecular target: T1, Perforin-1 (Homo sapiens) (UniProt P14222); test: Inhibition of perforin in human KHYG-1 cells pre-treated with compound for 20 mins assessed as reduction in KHYG-1 cells-mediated cell lysis of human K562 cells at 20 uM measured after 4 hrs by 51Cr release based gamma counting method
T1 sequence (whole entry): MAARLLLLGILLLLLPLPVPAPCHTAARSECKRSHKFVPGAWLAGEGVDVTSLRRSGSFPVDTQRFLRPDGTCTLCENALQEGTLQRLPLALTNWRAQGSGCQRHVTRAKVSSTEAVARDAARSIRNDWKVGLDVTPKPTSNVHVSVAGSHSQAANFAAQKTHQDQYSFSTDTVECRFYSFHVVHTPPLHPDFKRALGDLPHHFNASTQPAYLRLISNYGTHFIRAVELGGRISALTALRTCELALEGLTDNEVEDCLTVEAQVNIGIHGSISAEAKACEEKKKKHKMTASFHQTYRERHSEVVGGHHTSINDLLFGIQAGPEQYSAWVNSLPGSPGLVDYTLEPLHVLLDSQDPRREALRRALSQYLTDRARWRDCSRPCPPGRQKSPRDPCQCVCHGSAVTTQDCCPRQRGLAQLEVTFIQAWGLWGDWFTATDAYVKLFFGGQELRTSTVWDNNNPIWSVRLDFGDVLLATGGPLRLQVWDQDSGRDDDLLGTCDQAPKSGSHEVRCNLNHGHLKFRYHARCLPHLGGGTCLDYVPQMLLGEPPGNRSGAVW

[13] = Stability Milli-Q water at 10 uM incubated for 24 hrs by LC-MS/MS analysis; type: physicochemical; conditions: read-out: Stability
[14] = Stability in CD1 mouse liver microsomes assessed as parent compound remaining level at 3 uM pre-incubated for 30 mins before NADPH addition by LC-MS/MS analysis; type: ADME, Microsome; conditions: read-out: Stability
[15] = Stability in human liver microsomes assessed as parent compound remaining level at 3 uM pre-incubated for 30 mins before NADPH addition by LC-MS/MS analysis; type: ADME, Microsome; conditions: read-out: Stability
[16] = Stability in Sprague-Dawley rat liver microsomes assessed as parent compound remaining level at 3 uM pre-incubated for 30 mins before NADPH addition by LC-MS/MS analysis; type: ADME, Microsome; conditions: read-out: Stability
[17] = Cmax in CD1 mouse at 150 mg/kg, ip measured during 15 mins to 24 hrs by LC-MS/MS analysis; type: ADME, organism-based; set-up: dose 150 mg/kg, route intraperitoneal; conditions: in vivo
[18] = Half life in CD1 mouse at 150 mg/kg, ip measured during 15 mins to 24 hrs by LC-MS/MS analysis; type: ADME, organism-based; conditions: in vivo
[19] = AUC (0 to infinity) in CD1 mouse at 150 mg/kg, ip measured during 15 mins to 24 hrs by LC-MS/MS analysis; type: ADME, organism-based; set-up: dose 150 mg/kg, time infinity, route intraperitoneal; conditions: in vivo
[20] = Cmax in CD1 mouse at 75 mg/kg, ip measured during 15 mins to 24 hrs by LC-MS/MS analysis; type: ADME, organism-based; set-up: dose 75 mg/kg, route intraperitoneal; conditions: in vivo
[21] = AUC (0 to infinity) in CD1 mouse at 75 mg/kg, ip measured during 15 mins to 24 hrs by LC-MS/MS analysis; type: ADME, organism-based; set-up: dose 75 mg/kg, route intraperitoneal, time infinity; conditions: in vivo
[22] = Half life in CD1 mouse at 75 mg/kg, ip measured during 15 mins to 24 hrs by LC-MS/MS analysis; type: ADME, organism-based; conditions: in vivo

COc1ncc(-c2ccc(-c3cnc4c(c3)CN(C)C4=O)s2)cc1NS(=O)(=O)c1ccc(F)cc1F
Cmax [1]: 1310 µM
fraction unbound at 6 h, 10 µM [2]: 0.0009
Time [3]: 5 to 6 h
viability at 24 h, 10 µM [4]: 90.6%
half-life [5]: 18.9 h
Activity (Mus musculus [6]): 66%
Activity (Mus musculus [7]): 66%
Activity [8]: Non-Toxic
fraction unbound [9]: 0.255
AUC(0-inf) [10]: 42500 µM·h

O=C1NCc2cc(-c3ccc(-c4cncc([N-]S(=O)(=O)c5ccc(F)cc5F)c4)s3)cnc21.[Na+]
solubility [11]: 1.13 mg/mL

CN1Cc2cc(-c3ccc(-c4cncc(NS(=O)(=O)c5ccc(F)cc5F)c4)s3)cnc2C1=O
Cmax [1]: 860 µM
fraction unbound at 6 h, 10 µM [2]: 0.0006
viability at 24 h, 10 µM [4]: 99.6%
half-life [5]: 6.8 h
fraction unbound [9]: 0.456
AUC(0-inf) [10]: 10400 µM·h

O=C1c2ccc(-c3ccc(-c4cncc(NS(=O)(=O)c5ccc(F)cc5F)c4)s3)cc2CN1CCN1CCOCC1
inhibition [12]: inactive

O=C1NCc2ncc(-c3ccc(-c4cncc([N-]S(=O)(=O)c5ccc(F)cc5F)c4)s3)cc21.[Na+]
remaining at 24 h, 10 µM [13]: 93%
solubility [11]: 3.77 mg/mL
remaining at 3 µM [14]: 83%
remaining at 3 µM [15]: 95%
remaining at 3 µM [16]: 100%

O=C1NCc2cc(-c3ccc(-c4cncc(NS(=O)(=O)c5ccc(F)cc5F)c4)s3)cnc21
viability at 24 h, 10 µM [4]: 49%

CN1Cc2cc(-c3ccc(-c4cncc(NS(=O)(=O)c5cccc(C(F)(F)F)c5)c4)s3)cnc2C1=O [listing 1 of 2 here]
inhibition [12]: 40%

CN1CCN(CCN2Cc3cc(-c4ccc(-c5cncc(NS(=O)(=O)c6ccc(F)cc6F)c5)s4)ccc3C2=O)CC1
inhibition [12]: inactive

CN(C)CCN1Cc2cc(-c3ccc(-c4cncc(NS(=O)(=O)c5ccc(F)cc5F)c4)s3)ccc2C1=O
inhibition [12]: inactive

COc1ncc(-c2ccc(-c3cnc4c(c3)CN(C)C4=O)s2)cc1[N-]S(=O)(=O)c1ccccc1[N+](=O)[O-].[Na+]
remaining at 24 h, 10 µM [13]: 100%
solubility [11]: 4.81 mg/mL
remaining at 3 µM [14]: 95%
remaining at 3 µM [15]: 94%
remaining at 3 µM [16]: 80%

CN1Cc2cc(-c3ccc(-c4cncc([N-]S(=O)(=O)c5cccc(C(F)(F)F)c5)c4)s3)cnc2C1=O.[Na+]
solubility [11]: 20.3 mg/mL
remaining at 3 µM [14]: 88%
remaining at 3 µM [15]: 46%
remaining at 3 µM [16]: 84%

O=C1NCc2ncc(-c3ccc(-c4cncc(NS(=O)(=O)c5ccc(F)cc5F)c4)s3)cc21 [listing 1 of 2 here]
fraction unbound at 6 h, 10 µM [2]: 0.0011
Cmax [17]: 1320 µM
viability at 24 h, 10 µM [4]: 100%
half-life [18]: 5.5 h
AUC(0-inf) [19]: 7670 µM·h

CN1Cc2cc(-c3ccc(-c4cncc(NS(=O)(=O)c5ccccc5C(F)(F)F)c4)s3)cnc2C1=O
viability at 24 h, 10 µM [4]: 100%

O=C1c2ccc(-c3ccc(-c4cncc(NS(=O)(=O)c5ccc(F)cc5F)c4)s3)cc2CN1CCN1CCCCC1
inhibition [12]: inactive

COc1ncc(-c2ccc(-c3cnc4c(c3)CN(C)C4=O)s2)cc1NS(=O)(=O)c1ccccc1C(F)(F)F
viability at 24 h, 10 µM [4]: 95.8%

COc1ncc(-c2ccc(-c3cnc4c(c3)CN(C)C4=O)s2)cc1NS(=O)(=O)c1ccccc1[N+](=O)[O-]
fraction unbound at 6 h, 10 µM [2]: 0.0009
viability at 24 h, 10 µM [4]: 95.8%
Cmax [20]: 637 µM
AUC(0-inf) [21]: 2240 µM·h
half-life [22]: 1.6 h

O=C1NCc2ncc(-c3ccc(-c4cncc(NS(=O)(=O)c5ccc(F)cc5F)c4)s3)cc21 [listing 2 of 2 here]
inhibition [12]: 40%

COc1ncc(-c2ccc(-c3cnc4c(c3)CN(C)C4=O)s2)cc1[N-]S(=O)(=O)c1ccc(F)cc1F.[Na+]
remaining at 24 h, 10 µM [13]: 100%
solubility [11]: 18.3 mg/mL
remaining at 3 µM [14]: 100%
remaining at 3 µM [15]: 75%
remaining at 3 µM [16]: 100%

O=C1c2ccc(-c3ccc(-c4cncc(NS(=O)(=O)c5ccc(F)cc5F)c4)s3)cc2CN1CCN1CCCC1
inhibition [12]: inactive

O=C1c2ccc(-c3ccc(-c4cncc(NS(=O)(=O)c5ccc(F)cc5F)c4)s3)cc2CN1CC(O)CO (configuration not stated)
inhibition [12]: inactive

O=C1c2ccc(-c3ccc(-c4cncc(NS(=O)(=O)c5ccc(F)cc5F)c4)s3)cc2CN1CCCO
inhibition [12]: inactive

CN1Cc2cc(-c3ccc(-c4cncc([N-]S(=O)(=O)c5ccc(F)cc5F)c4)s3)cnc2C1=O.[Na+]
remaining at 24 h, 10 µM [13]: 100%
solubility [11]: 20.3 mg/mL
remaining at 3 µM [14]: 100%
remaining at 3 µM [15]: 80%
remaining at 3 µM [16]: 100%

COc1ncc(-c2ccc(-c3cnc4c(c3)CN(C)C4=O)s2)cc1[N-]S(=O)(=O)c1ccccc1C(F)(F)F.[Na+]
solubility [11]: 7.34 mg/mL
remaining at 3 µM [14]: 91%
remaining at 3 µM [15]: 63%
remaining at 3 µM [16]: 50%

CN1Cc2cc(-c3ccc(-c4cncc(NS(=O)(=O)c5cccc(C(F)(F)F)c5)c4)s3)cnc2C1=O [listing 2 of 2 here]
viability at 24 h, 10 µM [4]: 97.8%

CN1Cc2cc(-c3ccc(-c4cncc([N-]S(=O)(=O)c5ccccc5C(F)(F)F)c4)s3)cnc2C1=O.[Na+]
solubility [11]: 4.28 mg/mL
remaining at 3 µM [14]: 86%
remaining at 3 µM [15]: 56%
remaining at 3 µM [16]: 36%

From ChEMBL document CHEMBL4342415, “Inhibition of the Cytolytic Protein Perforin Prevents Rejection of Transplanted Bone Marrow Stem Cells in Vivo” (J Med Chem, 2020)
